Measurements reported in PMC9150102 (Journal of Medicinal Chemistry, 2022).

Experiments:
[1] = target: T1, Na^+/K^+ ATPase-alpha1 isoform purified from dog kidneys (Canis lupus familiaris, UniProt P50997); experiment: Na+/K+ ATPase activity inhibition, purified dog kidney enzyme (32P-ATP hydrolysis); format: biochemical
T1 construct: excised from 1–3-year-old male beagle dogs; from tissue; host or cells: dog (beagle) kidney outer medulla, Jørgensen purification
Experimental: Compounds were tested in a concentration range from 10^–9 to 10^–4 M on a purified renal Na^+/K^+ ATPase preparation with a specific activity of 14 μmol/min/mg protein.
Figure 2 Na^+/K^+ ATPase activity inhibition in a dog purified enzyme preparation. All compounds were tested in a concentration range from 10^–9 to 10^–4 M in comparison to ouabain.
The inhibitory effect of compounds was tested at multiple concentrations on Na^+/K^+ ATPase-alpha1 isoform purified from dog kidneys. […]
Renal Na+/K+ ATPase purification and activity
Purification of renal Na+/K+ ATPase was performed according to the method of Jørgensen2. Kidneys were excised from 1–3-year-old male beagle dogs, obtained from the General Pharmacology Department of Sigma-tau, Pomezia, Italy, under pentobarbital anesthesia. Kidneys were sliced and the outer medulla was dissected, pooled and suspended (1g in 10 ml) in a sucrose-histidine solution, containing 250 mM sucrose, 30 mM histidine and 5 mM EDTA, pH 7.2 and homogenized. The homogenate was centrifuged at 6,000 g for 15 min, the supernatant was decanted and centrifuged at 48,000 g for 30 min. The pellet was suspended in the sucrose-histidine buffer and incubated for 20 min with a sodium-dodecyl-sulphate (SDS) solution, dissolved in a gradient buffer, containing 25 mM imidazole and 1 mM EDTA, pH 7.5. The sample was layered on the top of a sucrose discontinuous gradient (10, 15 and 29.4%) and centrifuged at 60,000 g for 115 min. The final pellet was suspended in the gradient buffer.
Na+/K+ ATPase activity was assayed by measuring 32P-ATP hydrolysis, as previously described3.
Increasing concentrations of the standard ouabain, or tested compound, were incubated with 0.3 μg of purified dog kidney enzyme for 10 min at 37°C in 120 μl final volume of a medium, containing 140 mM NaCl, 3 mM MgCl2, 50 mM Hepes-Tris, 3 mM ATP, pH 7.5. Then, 10 μl of incubation solution containing 10 mM KCl and 20 nCi of 32P-ATP (3-10 Ci/mmol, Perkin Elmer) were added, the reaction continued for 15 min at 37°C and was stopped by acidification with 20% ice-cold perchloric acid.
32P was separated by centrifugation with activated Charcoal (Norit A, Serva) and the radioactivity was measured. Effects of increasing concentrations of the tested compound were compared to ouabain, as positive standard, and to vehicle (control) at 37°C. The inhibitory activity was expressed as percent of activity in control. The concentration of compound causing 50% inhibition of the Na+/K+ ATPase activity (IC50) was calculated by non-linear fitting of data points (KaleidagraphTM, Sinergy Software). […]

SERCA2a = target: T2, SERCA2a (Rattus norvegicus, UniProt P11507); experiment: SERCA2a ATPase activity in cardiac SR homogenates from healthy rats; format: biochemical
T2 construct: tissues from healthy and STZ rats were homogenized; from tissue; host or cells: Sprague Dawley rat left ventricle homogenates (healthy or STZ-diabetic)
Experimental: Measurements were performed in cardiac SR microsomes (guinea pig) and in whole tissue homogenates (rat). Cardiac preparations included SERCA2a and PLN. To test for PLN involvement in the effect of compounds, SERCA1 activity was measured in PLN-free microsomes (from guinea pig skeletal muscle) before and after reconstitution with the synthetic PLN1–32 inhibitory fragment at a ratio of 300:1 for PLN/SERCA. […] Either an increase in Vmax (rat) or a decrease in KdCa (increased Ca^2+ affinity) (guinea pig) stands for enhancement of SERCA function. […]
Left ventricles (LV) were dissected from rat and guinea -pig of healthy and failing preparations and frozen until use. Tissues were homogenized, subjected to centrifugation to obtain SR -enriched microsomes and sarcomeric proteins were extracted, as previously described 4. […]
In the case of rat hearts, cardiac homogenates were used to have sufficient material to replicate the experiments within a single animal. Hearts were excised from rats eight weeks after STZ injection. LV tissues from healthy and STZ rats were homogenized (1 g in 4 ml buffer) in a medium containing 300 mM sucrose, 50 mM K-phosphate, 10 mM NaF, 0.3 mM PMSF, 0.5 mM DTT, pH 7, and centrifuged at 35,000 g for 30 min. The final pellet was resuspended in the same buffer.
SERCA2a ATPase activity was measured as the rate of 32P-ATP release at multiple Ca2+ concentrations (100-2000 nM) in the absence and presence of tested compounds, as previously described5. Increasing concentrations of each compound were pre-incubated with 2 μg of cardiac preparations for 5 min at 4° C in 80 μl of a solution containing 100 mM KCl, 5 mM MgCl2, 1 μM A23187, 20 mM Tris, pH 7.5. Then, 20 μl of 5 mM Tris-ATP containing 50 nCi of 32P-ATP (3-10 Ci/mmol, Perkin Elmer) were added. The ATP hydrolysis was continued for 15 min at 37°C and the reaction was stopped by acidification with 100 μl of 20% ice-cold perchloric acid. 32P was separated by centrifugation with activated charcoal (Norit A, Serva) and the radioactivity was measured. SERCA2a-dependent ATPase activity was identified as the portion of total hydrolytic activity inhibited by cyclopiazonic acid (CPA, 10 µM). Technical replicates were used to ensure the reliability of single values. […]

T2 sequence (P11507 1-997 isoform P11507-2): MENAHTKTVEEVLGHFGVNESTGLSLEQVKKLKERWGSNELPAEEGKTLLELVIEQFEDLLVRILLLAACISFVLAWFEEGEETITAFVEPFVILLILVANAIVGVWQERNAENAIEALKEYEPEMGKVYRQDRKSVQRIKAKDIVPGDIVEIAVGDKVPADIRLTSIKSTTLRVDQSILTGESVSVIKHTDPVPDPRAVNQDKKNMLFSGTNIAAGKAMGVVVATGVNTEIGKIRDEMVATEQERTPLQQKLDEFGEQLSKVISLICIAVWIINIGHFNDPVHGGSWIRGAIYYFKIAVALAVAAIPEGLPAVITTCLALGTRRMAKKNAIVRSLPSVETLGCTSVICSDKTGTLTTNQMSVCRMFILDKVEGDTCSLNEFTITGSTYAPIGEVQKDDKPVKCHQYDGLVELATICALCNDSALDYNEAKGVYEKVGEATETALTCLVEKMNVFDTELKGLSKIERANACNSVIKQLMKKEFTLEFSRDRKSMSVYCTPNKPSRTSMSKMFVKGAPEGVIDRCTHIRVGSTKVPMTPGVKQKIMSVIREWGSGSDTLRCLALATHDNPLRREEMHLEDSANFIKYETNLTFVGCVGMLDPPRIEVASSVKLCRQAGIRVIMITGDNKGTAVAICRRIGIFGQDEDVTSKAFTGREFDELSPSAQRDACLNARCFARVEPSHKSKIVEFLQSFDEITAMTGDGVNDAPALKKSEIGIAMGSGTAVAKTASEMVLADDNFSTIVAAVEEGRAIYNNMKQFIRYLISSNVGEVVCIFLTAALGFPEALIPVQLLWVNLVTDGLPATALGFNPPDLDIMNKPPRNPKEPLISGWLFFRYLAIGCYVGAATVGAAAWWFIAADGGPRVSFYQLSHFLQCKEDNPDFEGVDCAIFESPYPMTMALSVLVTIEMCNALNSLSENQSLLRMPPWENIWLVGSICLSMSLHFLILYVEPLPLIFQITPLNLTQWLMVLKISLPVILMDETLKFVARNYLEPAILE

SMILES | IC50 [1] [µM] | SERCA2a KdCa (SERCA2a; Cpd 100 nM) [nM] | SERCA2a Vmax (µmol/min/mg) (SERCA2a; Cpd 100 nM) | SERCA2a KdCa (SERCA2a; Cpd 300 nM) [nM] | SERCA2a Vmax (µmol/min/mg) (SERCA2a; Cpd 300 nM) | SERCA2a KdCa (SERCA2a; Cpd 500 nM) [nM] | SERCA2a Vmax (µmol/min/mg) (SERCA2a; Cpd 500 nM) | SERCA2a KdCa (SERCA2a; Cpd 1000 nM) [nM] | SERCA2a Vmax (µmol/min/mg) (SERCA2a; Cpd 1000 nM)
C[C@]12CC[C@H](CC(=O)O)C[C@@H]1[C@@H](O)C[C@@H]1[C@@H]2CC[C@]2(C)C(=O)CC[C@@H]12 [Compound 8] | > 100 | 214 ± 17 | 0,344 ± 0,038 µmol/min/mg | 210 ± 13 | 0,366 ± 0,027 µmol/min/mg | 260 ± 35 | 0,313 ± 0,028 µmol/min/mg | 273 ± 32 | 0,320 ± 0,020 µmol/min/mg
C[C@]12CC[C@H](CCCC(=O)O)C[C@@H]1[C@@H](O)C[C@@H]1[C@@H]2CC[C@]2(C)C(=O)CC[C@@H]12 [Compound 5] | > 100 | 221 ± 24 | 0,371 ± 0,021 µmol/min/mg | 221 ± 21 | 0,384 ± 0,023 µmol/min/mg | 220 ± 24 | 0,374 ± 0,031 µmol/min/mg | 219 ± 32 | 0,377 ± 0,029 µmol/min/mg
